In patent US20200270309A1, “MALEIMIDE GROUP-MODIFIED ANGIOGENESIS INHIBITOR HM-1 AND USE THEREOF” (NANJING ANJI BIOLOGICAL TECHNOLOGY CO., LTD, priority 2017, published 2020):
Marks after values point to notes of the source that are not given here.

Experiments:
[1] = system: xylene-induced ear swelling; assay: Xylene-induced mouse ear swelling; assay type: in vivo; settings: Kunming mice, positive control, dose 200 mg/kg, once a day for 5 days
Experimental: Kunming mice were taken, a normal saline group was taken as a blank control group, an aspirin group (200 mg/kg) was taken as a positive control group, and X1-X90 administration groups were taken as test groups. The mice were injected once a day for 5 consecutive days. The blank control group was given an equal volume of normal saline. One hour after the last administration, 0.05 mL of xylene was applied to both sides of the right ear of each mouse to cause inflammation, while no drug was applied to the left ear as a normal ear. Two hours later, the mice were put to death by dislocation. Two ears were cut along the auricle. Ear pieces were taken with a puncher and weighed, and the swelling degree and the swelling rate were calculated. Swelling degree=right ear piece weight-left ear piece weight, swelling rate=(swelling degree/left ear piece weight)*100%. Statistical t-test was conducted on the experimental results. *P<0.05 indicates significant difference, and **P<0.01 indicates extremely significant difference.

[2] = system: human retinal capillary endothelial cells (HRCECs); assay: MTT proliferation inhibition on HRCECs; assay type: cell-based; settings: 48 h, dose 0.5 μM (positive control)
Experimental: An MTT method was used to detect the inhibitory activity of the angiogenesis inhibitor polypeptide on proliferation of HRCECs. HRCECs were digested and collected with trypsin after being cultured in an incubator at 37° C. with 5% CO2 to a density of 90% or more. The cells were resuspended with a culture solution and counted under a microscope, the cell concentration was adjusted to 3.0×10^4 cells/mL, and the cell suspension was inoculated into a 96-well plate at 100 μL/well, and cultured overnight in an incubator at 37° C. with 5% CO2. After the cells were completely adhered to the wall, cells with the addition of the angiogenesis inhibitor polypeptide were used as administration groups, cells with the addition of Avastin were used as a positive control group, and cells with the addition of culture solution without any drugs were used as a blank control group. The cells were diluted to respective predetermined concentrations with the culture solution. The diluent were added into 96-well plates respectively at 100 μL per well, and the cells were cultured at 37° C. for 48 h in an incubator with 5% CO2. 20 μL of 5 mg/mL MTT was added into each well of the 96-well plate, and the cultivation was continued for 4 h. The culture medium was removed, and 100 μL of DMSO was added to each well for dissolution. The absorbance was measured at a detection wavelength of 570 nm and a reference wavelength of 630 nm using a microplate reader, and the PIR was calculated by the formula as follows:
PIR (%)=1−administration group/negative group
The experiment was repeated independently three times. The results were expressed as mean±SD, and statistical T test was conducted. *P<0.05 indicates significant difference, and **P<0.01 indicates extremely significant difference.

[3] = system: HUVECs; assay: Transwell migration inhibition on HUVECs; assay type: cell-based, human; settings: dose 0.2 μM
[4] = system: carrageenan-induced toe swelling; assay: Carrageenan-induced toe swelling in rats; assay type: in vivo; settings: SD rats, Dex 10 mg/kg once a day for 3 d
Experimental: The rats were injected once a day, and the model group was given the same volume of normal saline for 3 d and fed normally. […] The foot swelling degree was calculated according to the following formula: foot swelling degree (mL)=foot volume after inflammation-foot volume before inflammation. The number of milliliters of overflow liquid was recorded (method: a ballpoint pen is used to circle the protruding point of the right joint as a measurement mark, and the right hind feet of each rat are sequentially placed into the volume measurer, so that the hind limbs are exposed outside the barrel, and the immersion depth is at the coincidence of the circle and the liquid level. After the foot enters the liquid, the liquid level rises, and the volume of overflow liquid is the volume of the right hind foot of the rat, and the normal volume of the right hind foot of each rat is measured in sequence).

[5] = system: splenic lymphocytes; assay: Proliferation of splenic lymphocytes in mice (ConA, MTT); assay type: cell-based; settings: dose 20 μM (Dex group), mouse splenic lymphocytes, 48 h
Experimental: Spleens of mice were taken out under aseptic conditions, washed with blank 1640 culture medium 3 times, ground with a 5 mL syringe core, filtered with a 200-mesh sieve, made into a single cell suspension. The suspension was centrifuged (1000 rpm×5 min), and supernatant was removed. Red blood cells were lysed by Tris-NH4Cl, and placed in ice water bath for 4 min and centrifuged (1000 rpm×5 min). The supernatant was removed, and the cells were washed twice with sterile PBS. Finally, RPMI 1640 culture solution (5 mL) containing 10% calf serum was added to suspend the cells. The cells were counted and the cell concentration was adjusted to 5×10^6 cells/mL, and the cells were cultured in a 96-well culture plate.
Blank control group, concanavalin A (ConA) group and dexamethasone (Dex) group were set in the experiment, and polypeptide X1-X90 groups were set as test groups. After 100 μL of splenic lymphocytes suspension per well was added into each group, 100 μL of blank 1640 culture solution was added into the blank control group, ConA was added into the ConA group, Dex was added into the Dex group, and ConA was added into the test groups on the basis of adding different concentrations of polypeptides X1-X90. The cells were static cultured at 37° C. in a cell incubator for 48 h. After the cultivation was completed, 20 μL of MTT was added to each well, and the cultivation was continued for 4 h. Finally, all the solutions in each well were discarded. 100 μL DMSO was added to each well and shaken, and the OD value at 570 nm was detected with a microplate reader. Five parallel experiments were set in each well.

[6] = system: IL-1β production by mouse peritoneal macrophages; assay: IL-1β production by mouse peritoneal macrophages (ELISA); assay type: cell-based; settings: dose 20 μM
Experimental: Mice were injected intraperitoneally with 1 mL of broth culture medium (containing 6% of starch). Three days later, mice peritoneal macrophages were taken aseptically and washed twice with 1640 culture medium, and the cell concentration was adjusted to 2×10^6 cells/mL. The solutions were injected into 24-well culture plates at 1 mL per well. The cells were incubated in a cell incubator for 3 h and vibrated once every 30 min to make the cells fully adhere to the wall. Then, the cells were washed twice with a culture solution to remove non-adhered cells. PBS was added to the blank group, positive drug Dex was added to the positive group, no drug was added to the model group, and polypeptides X1-X90 with low, medium and high concentrations were added to the test groups; and the cells were continuously cultured for 48 h after administration, and then centrifuged at 1000 r/min for 15 min. The supernatant was collected as a sample to be tested for IL-1β activity.

[7] = system: Brain tumor cell line; assay: MTT proliferation inhibition, brain tumor; assay type: cell-based, human; settings: 48 h, mean ±SD
[8] = system: Thyroid cancer tumor cell line; assay: MTT proliferation inhibition, thyroid cancer; assay type: cell-based, human; settings: 48 h, mean ±SD
[9] = system: Head and neck cancers tumor cell line; assay: MTT proliferation inhibition, head and neck cancers; assay type: cell-based, human; settings: 48 h, mean ±SD
[10] = system: Esophageal cancer tumor cell line; assay: MTT proliferation inhibition, esophageal cancer; assay type: cell-based, human; settings: 48 h, mean ±SD
[11] = system: Pancreatic cancer tumor cell line; assay: MTT proliferation inhibition, pancreatic cancer; assay type: cell-based, human; settings: 48 h, mean ±SD

CC(=O)Oc1ccccc1C(=O)O [Aspirin]
Swelling degree (mg) [1]: 3.08 ± 0.31** mg | inhibition at 200 mg/kg ([1]; Mus musculus, 120 h, read-out: Inhibition rate (%)): 51%

Avastin: positive control [reference compound]
Inhibition rate (%) [2]: 67.30%** | A570 nm-A630 nm ([2]; mean±SD): 0.4325 ± 0.01108 | Inhibition rate (%) ([3]; HUVEC migration vs blank control): 60.92% | Cell migration number (Mean ± SD) ([3]; HUVECs, transwell, 24 h): 418.92 ± 61.42 | Cell migration number (Mean ± SD) ([3]; 24 h): 418.92 ± 61.42 | Inhibition rate (migration) ([3]; 24 h): 60.92%

C[C@@H]1C[C@H]2[C@@H]3CCC4=CC(=O)C=C[C@]4(C)[C@@]3(F)[C@@H](O)C[C@]2(C)[C@@]1(O)C(=O)CO [Dex]
Swelling degree 1 h ([4]; 1 h after carrageenan): 0.22 ± 0.10 mg | Swelling degree 3 h ([4]; 3 h after carrageenan): 0.24 ± 0.11 mg | Swelling degree 5 h ([4]; 5 h after carrageenan): 0.29 ± 0.11 mg | Swelling degree 7 h ([4]; 7 h after carrageenan): 0.23 ± 0.08 mg | A570 nm/A630 nm [5]: 0.3918 ± 0.1127 | Inhibition rate (%) [5]: 52.65% | Inhibition rate ([6]; IL-1β production, vs model group): 62.95% | IL-1β ([6]; mouse peritoneal macrophages, 48 h, ELISA): 352.06 ± 17.29 pg/mL

CC(=O)O[C@@]12CO[C@@H]1C[C@H](O)[C@@]1(C)C(=O)[C@H](O)C3=C(C)[C@@H](OC(=O)[C@H](O)[C@@H](NC(=O)OC(C)(C)C)c4ccccc4)C[C@@](O)([C@@H](OC(=O)c4ccccc4)[C@H]21)C3(C)C [Docetaxel]
PIR (%) [7]: 70.69% | PIR (%) [8]: 73.75% | PIR (%) [9]: 55.66% | PIR (%) [10]: 53.43% | PIR (%) [11]: 45.92%
